pIC50: −log10 of the molar value.
Columns and labels:
Human HDAC6 = Human HDAC6 (Homo sapiens (Human), UniProt Q9UBN7); assay: In vitro HDAC6 enzymatic activity (Caliper endpoint assay or fluorogenic Nanosyn assay); assay type: biochemical; settings: ratio of HDAC8 IC50/HDAC6 IC50
Human HDAC8 = Human HDAC8 (Homo sapiens (Human), UniProt Q9BY41); assay: In vitro HDAC8 enzymatic activity (Caliper endpoint assay); assay type: biochemical
Sequence of Human HDAC8 (Q9BY41 whole entry): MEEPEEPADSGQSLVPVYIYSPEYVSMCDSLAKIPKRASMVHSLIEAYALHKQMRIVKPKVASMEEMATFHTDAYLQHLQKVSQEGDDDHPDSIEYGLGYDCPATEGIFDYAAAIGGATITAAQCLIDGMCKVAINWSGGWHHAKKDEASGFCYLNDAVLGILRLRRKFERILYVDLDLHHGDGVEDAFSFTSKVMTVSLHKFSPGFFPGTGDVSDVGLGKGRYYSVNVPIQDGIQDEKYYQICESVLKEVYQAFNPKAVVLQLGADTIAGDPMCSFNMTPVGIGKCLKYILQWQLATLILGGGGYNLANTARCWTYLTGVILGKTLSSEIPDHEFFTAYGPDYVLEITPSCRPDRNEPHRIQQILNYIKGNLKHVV

Sequence of Human HDAC6 (Q9UBN7 whole entry): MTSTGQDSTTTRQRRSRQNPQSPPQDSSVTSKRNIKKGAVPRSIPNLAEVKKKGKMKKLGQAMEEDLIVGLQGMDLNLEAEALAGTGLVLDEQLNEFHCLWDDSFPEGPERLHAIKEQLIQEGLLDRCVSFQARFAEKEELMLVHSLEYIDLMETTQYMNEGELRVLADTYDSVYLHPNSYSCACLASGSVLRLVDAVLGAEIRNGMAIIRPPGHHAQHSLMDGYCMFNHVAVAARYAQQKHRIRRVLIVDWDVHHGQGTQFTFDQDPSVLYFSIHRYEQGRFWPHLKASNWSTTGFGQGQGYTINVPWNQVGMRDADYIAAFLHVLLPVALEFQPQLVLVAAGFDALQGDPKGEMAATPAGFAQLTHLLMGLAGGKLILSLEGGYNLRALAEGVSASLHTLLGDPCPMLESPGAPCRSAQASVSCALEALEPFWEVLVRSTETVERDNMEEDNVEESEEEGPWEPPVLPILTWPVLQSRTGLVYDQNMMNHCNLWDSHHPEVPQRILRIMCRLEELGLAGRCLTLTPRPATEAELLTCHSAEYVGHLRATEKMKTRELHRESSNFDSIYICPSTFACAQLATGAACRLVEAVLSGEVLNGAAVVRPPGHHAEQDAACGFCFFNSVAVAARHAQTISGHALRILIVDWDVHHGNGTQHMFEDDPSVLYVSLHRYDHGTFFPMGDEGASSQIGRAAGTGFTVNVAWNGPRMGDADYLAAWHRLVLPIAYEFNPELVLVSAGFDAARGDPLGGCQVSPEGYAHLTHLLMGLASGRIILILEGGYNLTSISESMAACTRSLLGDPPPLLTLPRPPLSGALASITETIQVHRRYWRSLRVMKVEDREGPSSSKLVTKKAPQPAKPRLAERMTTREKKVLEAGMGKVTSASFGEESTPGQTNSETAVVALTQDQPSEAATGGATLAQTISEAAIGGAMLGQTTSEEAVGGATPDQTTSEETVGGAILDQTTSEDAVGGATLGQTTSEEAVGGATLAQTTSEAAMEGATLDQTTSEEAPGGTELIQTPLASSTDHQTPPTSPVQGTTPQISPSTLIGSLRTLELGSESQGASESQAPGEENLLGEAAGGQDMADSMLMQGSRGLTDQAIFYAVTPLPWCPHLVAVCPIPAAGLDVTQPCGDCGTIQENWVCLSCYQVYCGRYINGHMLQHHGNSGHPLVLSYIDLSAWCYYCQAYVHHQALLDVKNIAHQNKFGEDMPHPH

Selectivity (6 v 8) (fold) (Human HDAC6) | pIC50 (Human HDAC8) | SMILES
V (V: >1000) | < 4.00 | FC(F)c1nnc(-c2ccc(COc3cccc4ncccc34)nc2)o1 [Compound 63]
V (V: >1000) | < 4.00 | FC(F)c1nnc(-c2ccc(COc3ccc4cccnc4c3)nc2)o1 [Compound 34]
IV (IV: >100-1000) | – | N#Cc1cc(OCc2ccc(-c3nnc(C(F)F)o3)cn2)ccc1F [Compound 30, 5-((5-(5-(difluoromethyl)-1,3,4-oxadiazol-2-yl)pyridin-2-yl)methoxy)-2-fluorobenzonitrile]
